≈ marks a conversion by molar mass, not a printed value. Where two headings read alike, the source gives them in different places.
What was measured:
[1] = test system: Mycobacterium bovis BCG containing pMV361-lux (BCG:361-lux); assay: microbe, parasite or virus in culture; format: cell-based; conditions: for MBC: Mycobacterium tuberculosis variant bovis BCG, BCG
[2] = test system: rBCG:pMH30-lux; parameters: species or system BCG; BALB/C mice; conditions: mouse, in vivo
[3] = test system: Mycobacterium bovis BCG containing pMV361-lux (BCG:361-lux); assay: microbe, parasite or virus in culture; format: cell-based; conditions: for MIC: Mycobacterium tuberculosis variant bovis BCG, BCG
[4] = test system: Mycobacterium bovis BCG containing pMV361-lux (BCG:361-lux); assay: microbe, parasite or virus in culture; format: cell-based; conditions: Mycobacterium tuberculosis variant bovis BCG, 120 h, read-out: MIC BACTEC
[5] = test system: rBCG:pMH30-lux; parameters: species or system BCG; BALB/C mice; conditions: mouse, in vivo; remark: listed apart in the source

| Compound | MBC ([1]; 24 h) [µg/mL] | MBC ([1]; 48 h) [µg/mL] | MBC ([1]; 72 h) [µg/mL] | MBC ([1]; 96 h) [µg/mL] | MBC ([1]; 120 h) [µg/mL] | lux activity in spleens vs untreated control mice [2] | similarity in BACTEC and BCG:pMV361-lux assays (susceptibility) [3] | MIC ([3]; 24 h) [µg/mL] | MIC ([3]; 48 h) [µg/mL] | MIC ([3]; 72 h) [µg/mL] | MIC ([3]; 96 h) [µg/mL] | MIC ([3]; 120 h) [µg/mL] | MIC [4] [µg/mL] | MBC value in words [1] | reduced luminescence in spleen vs untreated control [5] [%] | total reduction in luminescence in spleen [5] [%] | lux activity in spleens [2] | rBCG-lux luminescence in spleens [2] |
| --- | --- | --- | --- | --- | --- | --- | --- | --- | --- | --- | --- | --- | --- | --- | --- | --- | --- | --- |
| NCC[C@H](O)C(=O)N[C@@H]1C[C@H](N)[C@@H](O[C@H]2O[C@H](CN)[C@@H](O)[C@H](O)[C@H]2O)[C@H](O)[C@H]1O[C@H]1O[C@H](CO)[C@@H](O)[C@H](N)[C@H]1O [Amikacin, amikacin] | 2 (≈ 3.42 µM) | 0.5 (≈ 0.854 µM) | 0.5 (≈ 0.854 µM) | 0.25 (≈ 0.427 µM) | 0.25 (≈ 0.427 µM) | substantially reduced lux activity | comparable | > 2 | > 2 | 0.5 (≈ 0.854 µM) | 0.25 (≈ 0.427 µM) | 0.25 (≈ 0.427 µM) | 0.13 (≈ 0.222 µM) | – | – | – | – | – |
| O=C(O)c1cn(C2CC2)c2cc(N3CCNCC3)c(F)cc2c1=O [Ciprofloxacin, ciprofloxacin] | > 2 | > 2 | – | 0.5 (≈ 1.51 µM) | 0.5 (≈ 1.51 µM) | – | comparable | > 2 | > 2 | 0.5 (≈ 1.51 µM) | 0.5 (≈ 1.51 µM) | 0.5 (≈ 1.51 µM) | 0.25 (≈ 0.754 µM) | – | – | – | – | – |
| CC[C@H]1OC(=O)[C@H](C)[C@@H](O[C@H]2C[C@@](C)(OC)[C@@H](O)[C@H](C)O2)[C@H](C)[C@@H](O[C@@H]2O[C@H](C)C[C@H](N(C)C)[C@H]2O)[C@](C)(OC)C[C@@H](C)C(=O)[C@H](C)[C@@H](O)[C@]1(C)O [Clarithromycin, clarithromycin] | > 0.5 | > 0.5 | > 0.5 | > 0.5 | > 0.5 | – | comparable | > 0.5 | > 0.5 | 0.5 (≈ 0.668 µM) | 0.25 (≈ 0.334 µM) | 0.25 (≈ 0.334 µM) | 0.25 (≈ 0.334 µM) | above the highest concentration tested | – | – | – | – |
| CC[C@@H](CO)NCCN[C@@H](CC)CO [Ethambutol, ethambutol] | > 8 | 8 (≈ 39.2 µM) | 4 to 8 (≈ 19.6 to 39.2 µM) | 4 (≈ 19.6 µM) | 4 (≈ 19.6 µM) | – | comparable | > 8 | > 8 | > 8 | 4 (≈ 19.6 µM) | 4 (≈ 19.6 µM) | 2 (≈ 9.79 µM) | – | 30 | 75 | reduced lux activity | – |
| NNC(=O)c1ccncc1 [Isoniazid, isoniazid] | > 0.5 | 0.13 (≈ 0.948 µM) | 0.13 (≈ 0.948 µM) | 0.13 (≈ 0.948 µM) | 0.13 (≈ 0.948 µM) | – | – | > 0.5 | > 0.5 | > 0.5 | 0.06 (≈ 0.438 µM) | 0.06 (≈ 0.438 µM) | 0.06 (≈ 0.438 µM) | – | 50 | 90 | reduced lux activity | – |
| CC1COc2c(N3CCN(C)CC3)c(F)cc3c(=O)c(C(=O)O)cn1c23 (centres unmarked) [OFX, ofloxacin] | – | – | – | – | – | substantially reduced lux activity | – | – | – | – | – | – | – | – | – | – | – | – |
| CO[C@H]1/C=C/O[C@@]2(C)Oc3c(C)c(O)c4c(O)c(c(/C=N/N5CCN(C)CC5)c(O)c4c3C2=O)NC(=O)/C(C)=C\C=C\[C@H](C)[C@H](O)[C@@H](C)[C@@H](O)[C@@H](C)[C@H](OC(C)=O)[C@@H]1C [Rifampin, rifampin] | > 0.25 | > 0.25 | > 0.25 | 0.13 (≈ 0.158 µM) | 0.13 (≈ 0.158 µM) | – | comparable | > 0.25 | > 0.25 | > 0.25 | 0.06 (≈ 0.0729 µM) | 0.06 (≈ 0.0729 µM) | 0.03 (≈ 0.0365 µM) | – | – | – | – | reduced rBCG-lux luminescence |
| [H]/N=C(/N)N[C@H]1[C@H](O)[C@@H](O)[C@H](O[C@@H]2O[C@@H](C)[C@](O)(C=O)[C@H]2O[C@@H]2O[C@@H](CO)[C@H](O)[C@@H](O)[C@@H]2NC)[C@@H](N/C(N)=N\[H])[C@@H]1O [Streptomycin, streptomycin] | > 2 | 0.5 (≈ 0.86 µM) | 0.5 (≈ 0.86 µM) | 0.25 (≈ 0.43 µM) | 0.25 (≈ 0.43 µM) | – | comparable | > 2 | 1 (≈ 1.72 µM) | 0.5 (≈ 0.86 µM) | 0.25 (≈ 0.43 µM) | 0.25 (≈ 0.43 µM) | 0.25 (≈ 0.43 µM) | – | – | – | – | – |

Source: patent US5679515A, “Mycobacterial reporter strains and uses thereof” (PathoGenesis Corporation, priority 1994, dated 1997)
